Data reported in ChEMBL document CHEMBL3044945, “Synthesis of 1,3,5-trisubstituted pyrazoline nucleus containing compounds and screening for antimicrobial activity” (2012).
Converted amounts (≈) assume the structure as drawn.

Assays:
Format in all cases: functional
Penicillium chrysogenum [1] = assay: Antifungal activity against Penicillium chrysogenum MTCC 161 at 250 ug/ml after 48 hr by cup-plate method; details: MTCC 161, 48 h, read-out: DIZ
Aspergillus niger [2] = assay: Antifungal activity against Aspergillus niger MTCC 2546 at 1000 ug/ml after 48 hr by cup-plate method; details: MTCC 2546, 48 h, read-out: DIZ
Pseudomonas aeruginosa [3] = assay: Antibacterial activity against Pseudomonas aeruginosa MTCC 424 at 750 ug/ml after 48 hr by cup-plate method; details: MTCC 424, 48 h, read-out: DIZ
Bacillus pumilus [4] = assay: Antibacterial activity against Bacillus pumilus MTCC 1456 at 250 ug/ml after 48 hr by cup-plate method; details: MTCC 1456, 48 h, read-out: DIZ
Micrococcus luteus [5] = assay: Antibacterial activity against Micrococcus luteus MTCC 1538 at 1000 ug/ml after 48 hr by cup-plate method; details: MTCC 1538, 48 h, read-out: DIZ
Bacillus pumilus [6] = assay: Antibacterial activity against Bacillus pumilus MTCC 1456 after 24 to 48 hr by tube dilution method
Pseudomonas fluorescens [7] = assay: Antibacterial activity against Pseudomonas fluorescens MTCC 2421 at 750 ug/ml after 48 hr by cup-plate method; details: MTCC 2421, 48 h, read-out: DIZ
Pseudomonas fluorescens [8] = assay: Antibacterial activity against Pseudomonas fluorescens MTCC 2421 at 1000 ug/ml after 48 hr by cup-plate method; details: MTCC 2421, 48 h, read-out: DIZ
Bacillus subtilis [9] = assay: Antibacterial activity against Bacillus subtilis MTCC 441 at 1000 ug/ml after 48 hr by cup-plate method; details: MTCC 441, 48 h, read-out: DIZ
Penicillium chrysogenum [10] = assay: Antifungal activity against Penicillium chrysogenum MTCC 161 at 500 ug/ml after 48 hr by cup-plate method; details: MTCC 161, 48 h, read-out: DIZ
Pseudomonas fluorescens [11] = assay: Antibacterial activity against Pseudomonas fluorescens MTCC 2421 at 100 ug/ml after 48 hr by cup-plate method; details: MTCC 2421, 48 h, read-out: DIZ
Escherichia coli [12] = assay: Antibacterial activity against Escherichia coli MTCC 1573 at 100 ug/ml after 48 hr by cup-plate method; details: MTCC 1573, 48 h, read-out: DIZ
Bacillus subtilis [13] = assay: Antibacterial activity against Bacillus subtilis MTCC 441 at 500 ug/ml after 48 hr by cup-plate method; details: MTCC 441, 48 h, read-out: DIZ
Pseudomonas fluorescens [14] = assay: Antibacterial activity against Pseudomonas fluorescens MTCC 2421 at 1250 ug/ml after 48 hr by cup-plate method; details: MTCC 2421, 48 h, read-out: DIZ
Micrococcus luteus [15] = assay: Antibacterial activity against Micrococcus luteus MTCC 1538 at 250 ug/ml after 48 hr by cup-plate method; details: MTCC 1538, 48 h, read-out: DIZ
Pseudomonas aeruginosa [16] = assay: Antibacterial activity against Pseudomonas aeruginosa MTCC 424 at 500 ug/ml after 48 hr by cup-plate method; details: MTCC 424, 48 h, read-out: DIZ
Bacillus pumilus [17] = assay: Antibacterial activity against Bacillus pumilus MTCC 1456 at 500 ug/ml after 48 hr by cup-plate method; details: MTCC 1456, 48 h, read-out: DIZ
Micrococcus luteus [18] = assay: Antibacterial activity against Micrococcus luteus MTCC 1538 at 1250 ug/ml after 48 hr by cup-plate method; details: MTCC 1538, 48 h, read-out: DIZ
Staphylococcus aureus [19] = assay: Antibacterial activity against Staphylococcus aureus MTCC 1430 at 1000 ug/ml after 48 hr by cup-plate method; details: MTCC 1430, 48 h, read-out: DIZ
Pseudomonas aeruginosa [20] = assay: Antibacterial activity against Pseudomonas aeruginosa MTCC 424 after 24 to 48 hr by tube dilution method
Pseudomonas aeruginosa [21] = assay: Antibacterial activity against Pseudomonas aeruginosa MTCC 424 at 100 ug/ml after 48 hr by cup-plate method; details: MTCC 424, 48 h, read-out: DIZ
Pseudomonas fluorescens [22] = assay: Antibacterial activity against Pseudomonas fluorescens MTCC 2421 at 500 ug/ml after 48 hr by cup-plate method; details: MTCC 2421, 48 h, read-out: DIZ
Escherichia coli [23] = assay: Antibacterial activity against Escherichia coli MTCC 1573 at 1250 ug/ml after 48 hr by cup-plate method; details: MTCC 1573, 48 h, read-out: DIZ
Escherichia coli [24] = assay: Antibacterial activity against Escherichia coli MTCC 1573 at 1000 ug/ml after 48 hr by cup-plate method; details: MTCC 1573, 48 h, read-out: DIZ
Bacillus pumilus [25] = assay: Antibacterial activity against Bacillus pumilus MTCC 1456 at 1250 ug/ml after 48 hr by cup-plate method; details: MTCC 1456, 48 h, read-out: DIZ
Escherichia coli [26] = assay: Antibacterial activity against Escherichia coli MTCC 1573 at 750 ug/ml after 48 hr by cup-plate method; details: MTCC 1573, 48 h, read-out: DIZ
Penicillium chrysogenum [27] = assay: Antifungal activity against Penicillium chrysogenum MTCC 161 at 1250 ug/ml after 48 hr by cup-plate method; details: MTCC 161, 48 h, read-out: DIZ
Aspergillus niger [28] = assay: Antifungal activity against Aspergillus niger MTCC 2546 at 500 ug/ml after 48 hr by cup-plate method; details: MTCC 2546, 48 h, read-out: DIZ
Penicillium chrysogenum [29] = assay: Antifungal activity against Penicillium chrysogenum MTCC 161 at 100 ug/ml after 48 hr by cup-plate method; details: MTCC 161, 48 h, read-out: DIZ
Bacillus subtilis [30] = assay: Antibacterial activity against Bacillus subtilis MTCC 441 at 1250 ug/ml after 48 hr by cup-plate method; details: MTCC 441, 48 h, read-out: DIZ
Bacillus subtilis [31] = assay: Antibacterial activity against Bacillus subtilis MTCC 441 at 100 ug/ml after 48 hr by cup-plate method; details: MTCC 441, 48 h, read-out: DIZ
Escherichia coli [32] = assay: Antibacterial activity against Escherichia coli MTCC 1573 after 24 to 48 hr by tube dilution method
Penicillium chrysogenum [33] = assay: Antifungal activity against Penicillium chrysogenum MTCC 161 at 1000 ug/ml after 48 hr by cup-plate method; details: MTCC 161, 48 h, read-out: DIZ
Pseudomonas aeruginosa [34] = assay: Antibacterial activity against Pseudomonas aeruginosa MTCC 424 at 1250 ug/ml after 48 hr by cup-plate method; details: MTCC 424, 48 h, read-out: DIZ
Staphylococcus aureus [35] = assay: Antibacterial activity against Staphylococcus aureus MTCC 1430 at 250 ug/ml after 48 hr by cup-plate method; details: MTCC 1430, 48 h, read-out: DIZ
Aspergillus niger [36] = assay: Antifungal activity against Aspergillus niger MTCC 2546 at 1250 ug/ml after 48 hr by cup-plate method; details: MTCC 2546, 48 h, read-out: DIZ
Micrococcus luteus [37] = assay: Antibacterial activity against Micrococcus luteus MTCC 1538 at 500 ug/ml after 48 hr by cup-plate method; details: MTCC 1538, 48 h, read-out: DIZ
Pseudomonas aeruginosa [38] = assay: Antibacterial activity against Pseudomonas aeruginosa MTCC 424 at 1000 ug/ml after 48 hr by cup-plate method; details: MTCC 424, 48 h, read-out: DIZ
Bacillus subtilis [39] = assay: Antibacterial activity against Bacillus subtilis MTCC 441 at 750 ug/ml after 48 hr by cup-plate method; details: MTCC 441, 48 h, read-out: DIZ
Staphylococcus aureus [40] = assay: Antibacterial activity against Staphylococcus aureus MTCC 1430 at 750 ug/ml after 48 hr by cup-plate method; details: MTCC 1430, 48 h, read-out: DIZ
Penicillium chrysogenum [41] = assay: Antifungal activity against Penicillium chrysogenum MTCC 161 at 750 ug/ml after 48 hr by cup-plate method; details: MTCC 161, 48 h, read-out: DIZ
Micrococcus luteus [42] = assay: Antibacterial activity against Micrococcus luteus MTCC 1538 at 750 ug/ml after 48 hr by cup-plate method; details: MTCC 1538, 48 h, read-out: DIZ
Staphylococcus aureus [43] = assay: Antibacterial activity against Staphylococcus aureus MTCC 1430 after 24 to 48 hr by tube dilution method
Staphylococcus aureus [44] = assay: Antibacterial activity against Staphylococcus aureus MTCC 1430 at 500 ug/ml after 48 hr by cup-plate method; details: MTCC 1430, 48 h, read-out: DIZ

## O=[N+]([O-])c1ccc(C2CC(c3cccc4ccccc34)=NN2c2ccc([N+](=O)[O-])cc2)cc1 (centres undefined)
Penicillium chrysogenum [1]
  zone of inhibition at 250 µg/mL: 10 mm
Aspergillus niger [2]
  zone of inhibition at 1000 µg/mL: 20 mm
Pseudomonas aeruginosa [3]
  zone of inhibition at 750 µg/mL: 13 mm
Bacillus pumilus [4]
  zone of inhibition at 250 µg/mL: 8 mm
Micrococcus luteus [5]
  zone of inhibition at 1000 µg/mL: 13 mm
Bacillus pumilus [6]
  MIC: 50 µg/mL (≈ 114 µM)
Pseudomonas fluorescens [7]
  zone of inhibition at 750 µg/mL: 14 mm
Pseudomonas fluorescens [8]
  zone of inhibition at 1000 µg/mL: 18 mm
Bacillus subtilis [9]
  zone of inhibition at 1000 µg/mL: 17 mm
Penicillium chrysogenum [10]
  zone of inhibition at 500 µg/mL: 12 mm
Pseudomonas fluorescens [11]
  zone of inhibition at 100 µg/mL: 9 mm
Escherichia coli [12]
  zone of inhibition at 100 µg/mL: 10 mm
Bacillus subtilis [13]
  zone of inhibition at 500 µg/mL: 13 mm
Pseudomonas fluorescens [14]
  zone of inhibition at 1250 µg/mL: 21 mm
Micrococcus luteus [15]
  zone of inhibition at 250 µg/mL: 9 mm
Pseudomonas aeruginosa [16]
  zone of inhibition at 500 µg/mL: 11 mm
Bacillus pumilus [17]
  zone of inhibition at 500 µg/mL: 10 mm
Micrococcus luteus [18]
  zone of inhibition at 1250 µg/mL: 15 mm
Staphylococcus aureus [19]
  zone of inhibition at 1000 µg/mL: 12 mm
Pseudomonas aeruginosa [20]
  MIC: 30 µg/mL (≈ 68.4 µM)
Pseudomonas aeruginosa [21]
  zone of inhibition at 100 µg/mL: 9 mm
Pseudomonas fluorescens [22]
  zone of inhibition at 500 µg/mL: 11 mm
Escherichia coli [23]
  zone of inhibition at 1250 µg/mL: 17 mm
Escherichia coli [24]
  zone of inhibition at 1000 µg/mL: 15 mm
Bacillus pumilus [25]
  zone of inhibition at 1250 µg/mL: 20 mm
Escherichia coli [26]
  zone of inhibition at 750 µg/mL: 13 mm
Penicillium chrysogenum [27]
  zone of inhibition at 1250 µg/mL: 17 mm
Aspergillus niger [28]
  zone of inhibition at 500 µg/mL: 14 mm
Penicillium chrysogenum [29]
  zone of inhibition at 100 µg/mL: 9 mm
Bacillus subtilis [30]
  zone of inhibition at 1250 µg/mL: 19 mm
Bacillus subtilis [31]
  zone of inhibition at 100 µg/mL: 11 mm
Escherichia coli [32]
  MIC: 50 µg/mL (≈ 114 µM)
Penicillium chrysogenum [33]
  zone of inhibition at 1000 µg/mL: 15 mm
Pseudomonas aeruginosa [34]
  zone of inhibition at 1250 µg/mL: 19 mm
Staphylococcus aureus [35]
  zone of inhibition at 250 µg/mL: 9 mm
Aspergillus niger [36]
  zone of inhibition at 1250 µg/mL: 25 mm
Micrococcus luteus [37]
  zone of inhibition at 500 µg/mL: 11 mm
Pseudomonas aeruginosa [38]
  zone of inhibition at 1000 µg/mL: 16 mm
Bacillus subtilis [39]
  zone of inhibition at 750 µg/mL: 15 mm
Staphylococcus aureus [40]
  zone of inhibition at 750 µg/mL: 11 mm
Penicillium chrysogenum [41]
  zone of inhibition at 750 µg/mL: 14 mm
Micrococcus luteus [42]
  zone of inhibition at 750 µg/mL: 12 mm
Staphylococcus aureus [43]
  MIC: 200 µg/mL (≈ 456 µM)
Staphylococcus aureus [44]
  zone of inhibition at 500 µg/mL: 10 mm
